Laboratory results as given in US7989466B2, “Methods to inhibit or augment an inflammatory response” (Cambridge Enterprise Limited, priority 1999, dated 2011).
pEC50: −log10 of the molar value. Marks after values point to notes of the source that are not given here. Positions of bridges follow the written chain, without caps; N, C: chain ends. Non-standard residues stand in square brackets, D forms with d. No end group written: not given here.

Legend:
gp120 = details: ns = not significantly different from control; >100 = ED50 not determined
[1] = tested on: MIP1α induced THP-1 migration; experiment: THP-1 trans-well migration assay, MIP1α as chemoattractant; assay type: cell-based, human; details: ns = not significantly different from control
Procedure: (§1) To determine whether an agent inhibits a chemokine-induced activity, such as macrophage recruitment, varying amounts of the agent are mixed with cells in the presence of a known chemoattractant. For example, a range of known concentrations of an agent, e.g., a chemokine peptide, is incubated with a defined number (e.g., 10^4-10^6) of human THP-1 monocyte cells in individual wells of the top compartment of a trans-well plate. Chemokine (such as MCP-1, MIP1α, IL8 or SDF-1α), at a concentration known to cause significant migration of THP-1 cells in the trans-well migration assay, is placed in the lower compartment (FIG. 1). Cells are then incubated at 37° C. for a period sufficient to allow migration, e.g., 4 hours. After incubation, the cells are gently removed from the top of the filter with a pipette, 20 μl of 20 mM EDTA in simple PBS is added into each top well, and incubated for 20 minutes at 4° C. The filter is carefully flushed with media using a gentle flow, and removed. A standard curve consisting of a two-fold dilution series of THP-1 cells (in 29 μl) is prepared to accurately quantify the number of cells that have migrated. Migrated cells are stained with 3 μl of MTT stock dye solution which is added directly into each well (5 mg/ml in RPMI-1640 without phenol red, Sigma Chemical Co.) and incubated at 37° C. for 4 hours. The media is carefully aspirated from each well, and the converted dye is solubilized by 20 μl of DMSO. Absorbance of converted dye is measured at a wavelength of 595 nm using an ELISA plate reader. The number of migrated cells in each well is then determined by interpolation of the standard curve (see also Imai et al., J. Biol. Chem., 272, 15036 (1997)).
(§2) For this assay, THP-1 cells were maintained at a density of 4×10^5 cells per ml in RPMI-1640 supplemented with 10% fetal calf serum+20 μM 2-mercaptoethanol. Chemotaxis was induced in a 96-well disposable chemotaxis chamber fitted with a […] polycarbonate filter (PVP free, ChemoTX, Neuroprobe Inc., Cabin John). Twenty-nine μl of chemoattractant (recombinant human chemokine; 50 ng/ml, i.e., 5.9 nM) or control (100 ng/ml TGFβ) was added to the lower compartment of each well. The framed filter was aligned with the holes in the corner of the filter frame and placed over the wells. Five×10^4 THP-1 cells in 25 μl of RPMI-1640 were added to the upper compartment. Peptides were dissolved in Milli Q water and then serially diluted in culture medium. In most cases, the serially diluted peptides were added to the upper compartment of the chemotaxis chamber. The chamber was incubated at 37° C. in a humidified atmosphere of 5% CO2 for 4 hours.
(§3) After incubation, the cells were gently removed from the top of the filter with a pipette, 20 μl of 20 mM EDTA in PBS was added into each top well, and the mixture was incubated for 20 minutes at 4° C. The filter was then carefully flushed with media using a gentle flow, and removed. A standard curve was prepared to accurately quantify the number of THP-1 cells that had migrated. The curve was based on a two-fold dilution series of THP-1 cells (top standard 100,000 cells in 29 μl). Cells which had migrated, and in separate wells, the cells in the standards, were stained with 3 μl of MTT stock solution which was added directly into each well (5 mg/ml in RPMI 1640 without phenol red, Sigma Chemical Co.) and incubated at 37° C. for 4 hours. The media was carefully aspirated from each well, and the converted dye was solubilized by 20 μl of DMSO. Absorbance of converted dye was measured at a wavelength of 595 nm using an ELISA plate reader. The number of cells that had migrated in each well was determined by interpolation of the standard curve.

HIV = assay type: cell-based; details: ns = not significantly different from control
[2] = tested on: MCP-1 induced THP-1 migration; experiment: THP-1 trans-well migration assay, MCP-1 as chemoattractant; assay type: cell-based, human; details: ns = not significantly different from control
Procedure: as §1, §2, §3

[3] = tested on: SDF-1α induced THP-1 migration; experiment: THP-1 trans-well migration assay, SDF-1α as chemoattractant; assay type: cell-based, human; details: ns = not significantly different from control
Procedure: as §1, §2, §3

[4] = in vivo; cited from earlier work
[5] = target: T1, Duffy Antigen Receptor for Chemokines (DARC) (Homo sapiens, UniProt Q16570); experiment: DARC binding: competition with 125I-MCP-1 on red blood cells; details: for DARC binding: ns = not significantly different from control, >100 = ED50 not determined
T1 sequence (Q16570 1-336): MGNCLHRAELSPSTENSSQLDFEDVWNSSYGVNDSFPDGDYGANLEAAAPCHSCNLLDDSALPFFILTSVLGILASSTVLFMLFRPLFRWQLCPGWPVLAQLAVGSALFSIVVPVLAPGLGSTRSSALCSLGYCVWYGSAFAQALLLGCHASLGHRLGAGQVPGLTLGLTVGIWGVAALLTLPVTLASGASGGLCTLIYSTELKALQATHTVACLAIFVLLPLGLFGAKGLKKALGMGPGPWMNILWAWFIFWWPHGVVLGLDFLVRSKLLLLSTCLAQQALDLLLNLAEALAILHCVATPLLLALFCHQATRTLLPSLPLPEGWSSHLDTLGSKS

[6] = tested on: chemokine receptors on THP-1 cells; experiment: Binding to chemokine receptors on THP-1 cells; parameters: species or system human
Procedure: In general, specific binding is calculated as the amount of labeled agent bound in the absence of cold competitor minus the amount of labeled agent bound in the presence of cold competitor. The amount of specific binding in the presence of varied amounts of cold competitor can be used to determine the association constant for the agent, as well as the number of binding sites on the cell for the agent, using, for example, Scatchard Analysis. The agent may be labeled by radiolabeling (e.g., iodination) or with a suitable biochemical tag (e.g., biotin) or by addition of a photoactivatable crosslinking group. Agents with an association constant lower than 100 μM (i.e., which bind more strongly than an agent with an association constant of 100 μM) and which have at least about 2,500, preferably at least about 10,000, and more preferably greater than 25,000, binding sites per cell for at least one cell type which expresses a chemokine receptor, fall under the scope of this invention. THP-1 cells have at least about 5,000 MCP-1 receptors/cell.
For example, monocytes are suspended in RPMI 1640 medium without bicarbonate containing 0.2% bovine serum albumin and 0.1% azide. Radiolabeled chemokine peptide is incubated with 1-2×10^6 cells, e.g., THP-1 cells, in the presence or absence of increasing concentrations of unlabeled chemokine (MCP-1, MCP-3, MCP-4, RANTES or MIP-1α) for 15 minutes at 37° C. in a 96-well plate in a final volume of 0.2 ml (e.g., PBS+0.5% FCS). After the incubation, 0.5 ml of ice-cold wash buffer (20 mM Tris, 0.5 M NaCl, pH 7.4) is added, and cells are collected onto a polyethyleneimine-treated Whatman GF/C filter using a Brandall cell harvester. Filters are washed with 4 ml of cold wash buffer, and the radioactivity bound to the filters is counted in a γ-counter.
For Scatchard analysis, the absorbance readings at 450 nm were calibrated, by reference to a standard curve in which known amounts of labeled peptide were coupled to derivatized sepharose beads (activated thiol-sepharose 4B; Sigma T8512) via the cysteine residue in each peptide. Briefly, known amounts (1 fmol to 1 pmol) of biotin-labeled peptide were incubated with 1 mg of activated thiol-sepharose beads in 100 μl of PBS at 37° C. for 1 hour. Free activated thiols were then blocked by addition of cysteine to a final concentration of 10 mM. The peptide-conjugated beads were then washed 5 times in PBS and treated exactly as for the cells described above. The absorbance at 450 nm obtained when a known amount of peptide was coupled to the beads was used to construct a standard curve which was used to convert the absorbance readings obtained with cells into number of molecules of labeled peptide which had bound.

[7] = tested on: chemokine-induced THP-1 migration; experiment: THP-1 trans-well migration assay, panel of chemokines (MCP-1, MIP1α, IL-8, SDF1α); assay type: cell-based, human; details: MCP-1, MIP1α, IL-8, SDF1α
[8] = tested on: RANTES induced THP-1 migration; experiment: THP-1 trans-well migration assay, RANTES as chemoattractant; assay type: cell-based, human; details: tripeptide at 100 μM, mean ± range; dash = no statistically significant reduction in migration
Procedure: To determine whether an agent inhibits a chemokine-induced activity, such as macrophage recruitment, varying amounts of the agent are mixed with cells in the presence of a known chemoattractant. For example, a range of known concentrations of an agent, e.g., a chemokine peptide, is incubated with a defined number (e.g., 10^4-10^6) of human THP-1 monocyte cells in individual wells of the top compartment of a trans-well plate. Chemokine (such as MCP-1, MIP1α, IL8 or SDF-1α), at a concentration known to cause significant migration of THP-1 cells in the trans-well migration assay, is placed in the lower compartment (FIG. 1). […] A standard curve consisting of a two-fold dilution series of THP-1 cells (in 29 μl) is prepared to accurately quantify the number of cells that have migrated. […] Absorbance of converted dye is measured at a wavelength of 595 nm using an ELISA plate reader. The number of migrated cells in each well is then determined by interpolation of the standard curve (see also Imai et al., J. Biol. Chem., 272, 15036 (1997)). […]
After incubation, the cells were gently removed from the top of the filter with a pipette, 20 μl of 20 mM EDTA in PBS was added into each top well, and the mixture was incubated for 20 minutes at 4° C. […] A standard curve was prepared to accurately quantify the number of THP-1 cells that had migrated. […]

[9] = tested on: TGF-beta receptor of THP-1 cells; experiment: Binding of biotinylated TGF-beta peptides to THP-1 cells; parameters: species or system human; details: for pEC50: biotinylated peptide, read-out: ED50 of binding to the TGF-beta receptor of THP-1 cells

| Compound | gp120 ED-50 (gp120) | MIPIa ED-50 [1] | % virus inhibition (HIV) | MCP-1 ED-50 [2] | SDF1a ED-50 [3] | DARC binding [5] | further results |
| --- | --- | --- | --- | --- | --- | --- | --- |
| CC[C@H](C)[C@H](NC(=O)[C@H](CCCNC(=N)N)NC(=O)[C@H](CCCNC(=N)N)NC(=O)[C@H](Cc1ccc(O)cc1)NC(=O)[C@@H](N)CO)C(=O)N[C@H](C(=O)N[C@@H](CO)C(=O)N[C@@H](CO)C(=O)N[C@@H](CCCCN)C(=O)N[C@@H](CS)C(=O)O)[C@@H](C)O | 60 µM | ns | ns | ns | ns | – | – |
| NCC[C@H](O)C(=O)N[C@@H]1C[C@H](N)[C@@H](O[C@H]2O[C@H](CN)[C@@H](O)[C@H](O)[C@H]2O)[C@H](O)[C@H]1O[C@H]1O[C@H](CO)[C@@H](O)[C@H](N)[C@H]1O [amikacin] | – | – | – | – | – | – | T1/2 [4]: about 2 hours; Vd [4]: 0.27 L/kg; urinary excretion [4]: 98% |
| =cvaekpsksstirrysc= ([dC][dV][dA][dE][dK][dP][dS][dK][dS][dS][dT][dI][dR][dR][dY][dS][dC]; disulfide 1-17 (inferred); not fully specified (C-terminus); printed as =cvaekpsksstirrysc=) | ns | ns | ns | ns | ns | – | – |
| CSKPGV | ns | ns | ns | ns | ns | ns | – |
| CSYRRITSSKSPKEAVC | – | ns | ns | ns | ns | ns | – |
| DYFETSSQC | ns | ns | ns | ns | ns | ns | – |
| HLKILNTPNCALQIV [Pep2[SDF1]] | 35 µM | 40 =M | – | 10 =M | 7 =M | – | AVERAGE ED50, peptide 2 family: estimated ka for binding to THP-1 cells [6]: 1-10^e μM; effect on THP-1 migration induced by the chemokine panel, in words [7]: potent pan-chemokine antagonist properties; DUFFY SELECTIVITY, peptide 2 family ([5]; ka for binding to red blood cells divided by the ka for binding THP-1 cells): <1^d |
| SES | – | – | – | – | – | – | percentage inhibition of migration induced by RANTES [8]: 87 ± 4% |
| SYRRI | ns | ns | ns | ns | ns | ns | – |
| TSSKC | ns | ns | ns | ns | ns | ns | – |
| biotinylated HEPKGYHANFC [Biotinylated T2] | – | – | – | – | – | – | receptor character (agonist, antagonist, neutral) [9]: weak receptor antagonist; pEC50 [9]: 4.52 |
| biotinylated LYIDFRQDLGWKW (also: biotinylated, site not given here) [Biotinylated T1] | – | – | – | – | – | – | receptor character (agonist, antagonist, neutral) [9]: receptor neutral agent; pEC50 [9]: 4.74 |
| vgpkscqsstefyd | ns | ns | ns | ns | ns | ns | – |
